Assay results from patent publication US12134611B2, “Compounds and compositions for treating conditions associated with NLRP activity” (Novartis AG, priority 2018, dated 2024).

Molecular target: T1, hNLRP3 (Homo sapiens, UniProt Q96P20)
T1 construct: THP-1 cells were purchased from the American Type Culture Collection; host or cells: THP-1 cells, PMA-differentiated, stimulated with gramicidin
Test: IL-1β production in PMA-differentiated THP-1 cells stimulated with gramicidin (hTHP-1 assay)
Type: cell-based
Conditions: read-out: NLRP3 Antagonist, hNLRP3 (THP-1, IL-1b) Normalized: GeoMean IC50
Procedure: Procedure 1: IL-1β Production in PMA-Differentiated THP-1 Cells Stimulated with Gramicidin.
THP-1 cells were purchased from the American Type Culture Collection and sub-cultured according to instructions from the supplier. […] Prior to the experiment, compounds were dissolved in dimethyl sulfoxide (DMSO) to generate a 30 mM stock. […] DMSO was backfilled in the plate to achieve a final DMSO assay concentration of 0.37%. The plate was then sealed and stored at room temperature until required.
THP-1 cells were treated with PMA (Phorbol 12-myristate 13-acetate) (20 ng/ml) for 16-18 hours. On the day of the experiment the media was removed and adherent cells were detached with trypsin for 5 minutes.
Procedure 2: IL-1β Production in PMA-Differentiated THP-1 Cells Stimulated with Gramicidin.
THP-1 cells were purchased from the American Type Culture Collection and sub-cultured according to instructions from the supplier. […] Prior to the experiment THP-1 were treated with PMA (Phorbol 12-myristate 13-acetate) (20 ng/ml) for 16-18 hours. Compounds were dissolved in dimethyl sulfoxide (DMSO) to generate a 30 mM stock. On the day of the experiment the media was removed and adherent cells were detached with trypsin for 5 minutes. […] Final DMSO concentration was at 0.37%. Cells were incubated with compounds for 1 hour and then stimulated with gramicidin (5 μM) (Enzo) for 2 hours. Plates were then centrifuged at 340 g for 5 min. Cell free supernatant (40 μL) was collected using a 96-channel PlateMaster (Gilson) and the production of IL-1β was evaluated by HTRF (cisbio).
1. Experimental procedure
1.2 Compound Preparation • Prepare the 3-fold serial dilution of the compounds with DMSO in a 384-well LDV Microplate using TECAN EVO system to generate the compound source plate with 10 concentrations. Top concentration is 30 mM. FIG. 5 depicts the layout of the microplate.
FIG. 5 depicts the layout of the plates: HC: 100 μM CRID3 (MCC950)+5 μM gramicidin LC: 5 μM Gramicidin.
1.5 IL-1β Detection • 1) Homogenize the 5× diluent #5 with a vortex and add 1 volume of stock solution in 4 volumes of distilled water. • 2) Thaw 20× stock solution of anti-IL1β-Cryptate-antibody and anti-IL1β XL-antibody. […] 2. Data Analysis: • 1.

T1 sequence (Q96P20 whole entry): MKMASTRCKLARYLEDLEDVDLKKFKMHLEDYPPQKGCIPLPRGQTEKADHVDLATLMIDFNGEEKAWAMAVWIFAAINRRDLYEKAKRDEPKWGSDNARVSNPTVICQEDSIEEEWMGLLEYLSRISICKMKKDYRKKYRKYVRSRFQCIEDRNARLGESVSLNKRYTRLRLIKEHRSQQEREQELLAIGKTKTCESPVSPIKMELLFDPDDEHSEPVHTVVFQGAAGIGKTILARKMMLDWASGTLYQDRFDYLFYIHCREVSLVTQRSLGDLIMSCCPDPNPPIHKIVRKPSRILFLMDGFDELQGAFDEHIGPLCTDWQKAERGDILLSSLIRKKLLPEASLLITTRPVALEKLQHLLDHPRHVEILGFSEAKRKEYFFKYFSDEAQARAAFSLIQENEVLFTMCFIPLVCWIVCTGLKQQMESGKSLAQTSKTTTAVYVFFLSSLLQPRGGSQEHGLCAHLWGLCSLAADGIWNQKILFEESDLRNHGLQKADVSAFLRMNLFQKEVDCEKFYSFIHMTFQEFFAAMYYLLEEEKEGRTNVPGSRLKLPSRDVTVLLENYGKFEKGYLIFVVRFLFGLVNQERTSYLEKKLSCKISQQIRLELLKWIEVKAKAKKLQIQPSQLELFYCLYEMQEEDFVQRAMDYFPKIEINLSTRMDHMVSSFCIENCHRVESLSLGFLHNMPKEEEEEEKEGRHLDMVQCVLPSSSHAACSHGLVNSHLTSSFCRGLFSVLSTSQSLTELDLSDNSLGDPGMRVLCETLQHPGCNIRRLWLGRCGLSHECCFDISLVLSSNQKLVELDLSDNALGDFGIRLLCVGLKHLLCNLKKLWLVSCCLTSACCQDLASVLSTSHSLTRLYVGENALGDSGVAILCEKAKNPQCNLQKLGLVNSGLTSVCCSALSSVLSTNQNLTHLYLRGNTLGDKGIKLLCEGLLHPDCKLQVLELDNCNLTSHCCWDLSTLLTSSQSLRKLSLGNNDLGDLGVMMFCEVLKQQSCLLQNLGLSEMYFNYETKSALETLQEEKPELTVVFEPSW

| IC50 | SMILES |
| --- | --- |
| 200 to 1000 nM | O=C1CCCS(=O)(=NC(=O)Nc2c3c(cc4c2CCC4)CCC3)N1 (single isomer, unassigned) [Compound 113a, (S or R)-1-(1,2,3,5,6,7-hexahydro-s-indacen-4-yl)-3-(1-oxido-3-oxo-1l6,2-thiazinan-1-ylidene)urea] |
| 5000 to 30000 nM | O=C(N=S1(=O)CC2(COC2)C(=O)N1)Nc1c2c(cc3c1CCC3)CCC2 (single isomer, unassigned) [Compound 132b, (R or S)-1-(1,2,3,5,6,7-hexahydro-s-indacen-4-yl)-3-(6-oxido-8-oxo-2-oxa-6l6-thia-7-azaspiro[3.4]octan-6-ylidene)urea] |
| 200 to 1000 nM | CC1(C)CS(=O)(=NC(=O)Nc2c3c(cc4c2CCC4)CCC3)NC1=O (single isomer, unassigned) [Compound 102a, (S or R)-1-(4,4-dimethyl-1-oxido-3-oxo-1l6-isothiazolidin-1-ylidene)-3-(1,2,3,5,6,7-hexahydro-s-indacen-4-yl)urea] |
| 5000 to 30000 nM | O=C(N=S1(=O)NC(=O)c2cccnc21)Nc1c2c(cc3c1CCC3)CCC2 (stereo not drawn) [Compound 223, 1-(1,2,3,5,6,7-hexahydro-s-indacen-4-yl)-3-(1-oxido-3-oxo-2,3-dihydro-1l4-isothiazolo[5,4-b]pyridin-1-ylidene)urea] |
| 40 to 200 nM | CC(O)(CO)c1ccc2c(c1)S(=O)(=NC(=O)Nc1c3c(cc4c1CCC4)CCC3)NC2=O (stereo not drawn) [Compound 208, 1-(6-(1,2-dihydroxypropan-2-yl)-1-oxido-3-oxo-2,3-dihydro-1l4-benzo[d]isothiazol-1-ylidene)-3-(1,2,3,5,6,7-hexahydro-s-indacen-4-yl)urea] |
| 40 to 200 nM | CC(O)(CO)c1ccc2c(c1)S(=O)(=NC(=O)Nc1c3c(cc4c1CCC4)CCC3)NC2=O (single isomer, unassigned) [Compound 208b, 1-((1S or R)-6-(1,2-dihydroxypropan-2-yl)-1-oxido-3-oxo-2,3-dihydro-1l4-benzo[d]isothiazol-1-ylidene)-3-(1,2,3,5,6,7-hexahydro-s-iadacen-4-yl)urea] |
| 200 to 1000 nM | O=C(N=S1(=O)NC(=O)c2ccccc21)Nc1c2c(cc3c1CCC3)CCC2 (single isomer, unassigned) [Compound 129a, 3-[(1R or 1S)-1,3-dioxo-2,3-dihydro-1-^λ-6,2-benzothiazol-1-ylidene]-1-(1,2,3,5,6,7-hexahydro-s-indacen-4-yl)urea] |
| 1000 to 5000 nM | O=C(N=S1(=O)CC2(COC2)C(=O)N1)Nc1c2c(cc3c1CCC3)CCC2 (single isomer, unassigned) [Compound 132a, (S or R)-1-(1,2,3,5,6,7-hexahydro-s-indaccn-4-yl)-3-(6-oxido-8-oxo-2-oxa-6l6-thia-7-azaspiro[3.4]octan-6-ylidene)urea] |
| 200 to 1000 nM | Cc1c(C(F)(F)F)nc2c(c1NC(=O)N=S1(=O)NC(=O)c3ccc(C(C)(C)O)cc31)CCC2 (single isomer, unassigned) [Compound 108a, (R or S)-1-(6-(2-hydroxypropan-2-yl)-1-oxido-3-oxo-2,3-dihydro-1l4-benzo[d]isothiazol-1-ylidene)-3-(3-methyl-2-(trifluoromethyl)-6,7-dihydro-5H-cyclopenta[b]pyridin-4-yl)urea] |
| > 30000 nM | CN(C)Cc1ccc2c(c1)S(=O)(=NC(=O)Nc1c3c(cc4c1CCC4)CCC3)NC2 (single isomer, unassigned) [Compound 133b, (S or R)-1-(6-((dimethylamino)methyl)-1-oxido-2,3-dihydro-1l4-benzo[d]isothiazol-1-ylidene)-3-(1,2,3,5,6,7-hexahydro-s-indacen-4-yl)urea] |
| 200 to 1000 nM | Cc1c(C2CC2)nc2c(c1NC(=O)N=S1(=O)NC(=O)c3ccc(C(C)(C)O)cc31)CCC2 (stereo not drawn) [Compound 105, 1-(2-cyclopropyl-3-methyl-6,7-dihydro-5H-cyclopenta[b]pyridin-4-yl)-3-(6-(2-hydroxypropan-2-yl)-1-oxido-3-oxo-2,3-dihydro-1l4-benzo[d]isothiazol-1-ylidene)urea] |
| > 30000 nM | CC(C)(O)c1ccc2c(c1)S(=O)(=NC(=O)Nc1c3c(cc4c1CCC4)CCC3)NC2 (stereo not drawn) [Compound 126, 1-(1,2,3,5,6,7-hexahydro-s-indacen-4-yl)-3-[6-(2-hydroxypropan-2-yl)-1-oxo-2,3-dihydro-1-^λ-6,2-benzothiazol-1-ylidene]urea] |
| 200 to 1000 nM | CC(C)(O)c1ccc2c(c1)S(=O)(=NC(=O)Nc1c3c(cc4c1CCC4)CCC3)NC2=O (racemic) [Compound 127, 1-(1,2,3,5,6,7-hexahydro-s-indacen-4-yl)-3-[6-(2-hydroxypropan-2-yl)-1,3-dioxo-2,3-dihydro-1-^λ-6,2-benzothiazol-1-ylidene]urea] |
| 5000 to 30000 nM | COC(=O)c1ccc2c(c1)S(=O)(=NC(=O)Nc1c3c(cc4c1CCC4)CCC3)NC2=O (stereo not drawn) [Compound 134, methyl 1-(((1,2,3,5,6,7-hexahydro-s-indacen-4-yl)carbamoyl)imino)-3-oxo-2,3-dihydro-1H-1l4-benzo[d]isothiazole-6-carboxylate 1-oxide] |
| 1000 to 5000 nM | CC(C)(O)c1ccc2c(c1)S(=O)(=NC(=O)Nc1c3c(nc(C4CC4)c1C1CC1)CCC3)NC2=O (stereo not drawn) [Compound 106, 1-(2,3-dicyclopropyl-6,7-dihydro-5H-cyclopenta[b]pyridin-4-yl)-3-(6-(2-hydroxypropan-2-yl)-1-oxido-3-oxo-2,3-dihydro-1l4-benzo[d]isothiazol-1-ylidene)urea] |
| 1000 to 5000 nM | O=C1CCCS(=O)(=NC(=O)Nc2c3c(cc4c2CCC4)CCC3)N1 (stereo not drawn) [Compound 113, 1-(1,2,3,5,6,7-hexahydro-s-indacen-4-yl)-3-(1-oxido-3-oxo-1l6,2-thiazinan-1-ylidene)urea] |
| 1000 to 5000 nM | CC(C)(O)c1ccc2c(c1)S(=O)(=NC(=O)Nc1c3c(cc4c1CC4)CCC3)NC2=O (single isomer, unassigned) [Compound 112b, (S or R)-1-(6-(2-hydroxypropan-2-yl)-1-oxido-3-oxo-2,3-dihydro-1l4-benzo[d]isothiazol-1-ylidene)-3-(2,4,5,6-tetrahydro-1H-cyclobuta[f]inden-3-yl)urea] |
| 5000 to 30000 nM | CN(C)Cc1ccc2c(c1)CNS2(=O)=NC(=O)Nc1c2c(cc3c1CCC3)CCC2 (stereo not drawn) [Compound 122, 1-{5-[(dimethylamino)methyl]-1-oxo-2,3-dihydro-1$l6,2-benzothiazol-1-ylidene}-3-(1,2,3,5,6,7-hexahydro-s-indacen-4-yl)urea] |
| 1000 to 5000 nM | CN(C)Cc1ccc2c(c1)S(=O)(=NC(=O)Nc1c3c(cc4c1CCC4)CCC3)NC2=O (stereo not drawn) [Compound 110, 1-(6-((dimethylamino)methyl)-1-oxido-3-oxo-2,3-dihydro-1l4-benzo[d]isothiazol-1-ylidene)-3-(1,2,3,5,6,7-hexahydro-s-indacen-4-yl)urea] |
| 5000 to 30000 nM | CC(C)(O)c1ccc2c(c1)C(=O)NS2(=O)=NC(=O)Nc1c2c(cc3c1CCC3)CCC2 (single isomer, unassigned) [Compound 121b, (S or R)-1-(1,2,3,5,6,7-hexahydro-s-indacen-4-yl)-3-(5-(2-hydroxypropan-2-yl)-1-oxido-3-oxo-2,3-dihydro-1l4-benzo[d]isothiazol-1-ylidene)urea] |
| 5000 to 30000 nM | O=C(N=S1(=O)NC(=O)c2cccnc21)Nc1c2c(cc3c1CCC3)CCC2 (single isomer, unassigned) [Compound 223b, (R or S)-1-(1,2,3,5,6,7-hexahydro-s-indacen-4-yl)-3-(1-oxido-3-oxo-2,3-dihydro-1l4-isothiazolo[5,4-b]pyridin-1-ylidene)urea] |
| 1000 to 5000 nM | O=C(N=S1(=O)NC(=O)c2ccc(Br)cc21)Nc1c2c(cc3c1CCC3)CCC2 (stereo not drawn) [Compound 103, 1-(6-bromo-1-oxido-3-oxo-2,3-dihydro-1l4-benzo[d]isothiazol-1-ylidene)-3-(1,2,3,5,6,7-hexahydro-s-indacen-4-yl)urea] |
| > 30000 nM | O=C(N=S1(=O)CC2(CN1)COC2)Nc1c2c(cc3c1CCC3)CCC2 (single isomer, unassigned) [Compound 139a, (S or R)-1-(1,2,3,5,6,7-hexahydro-s-indacen-4-yl)-3-(6-oxido-2-oxa-6l6-thia-7-azaspiro[3.4]octan-6-ylidene)urea] |
| > 30000 nM | CC(C)(O)c1ccc2c(c1)S(=O)(=NC(=O)Nc1c3c(nc(C4CC4)c1C1CC1)CCC3)NC2=O (single isomer, unassigned) [Compound 106b, 1(S or R)-1-(2,3-dicyclopropyl-6,7-dihydro-5H-cyclopenta[b]pyridin-4-yl)-3-(6-(2-hydroxypropan-2-yl)-1-oxido-3-oxo-2,3-dihydro-1l4-benzo[d]isothiazol-1-ylidene)urea] |
